Assays:
PM1 = assay: MTBE degradation kinetics by PM1; assay type: cell-based, Methylibium petroleiphilum PM1
M. petroleiphilum PM1 [1] = assay: PM1 growth in mineral salts medium (MSM) on a sole carbon source; assay type: cell-based, Methylibium petroleiphilum PM1; settings: for doubling time of PM1 cells, t1/2: cells growing on the substance as sole carbon source; for concentration up to which PM1 is capable of growth: on MSM
n-alkane grown GPo 1 = settings: cited from earlier work
M. petroleiphilum PM1 [2] = assay: PM1 tolerance of MTBE on tryptic soy broth media; assay type: cell-based, Methylibium petroleiphilum PM1
[3] = used to calculate solution-phase concentration; cited from earlier work

Structure (SMILES) | apparent half saturation constant for MTBE (PM1) [µM] | doubling time of PM1 cells, t1/2 (M. petroleiphilum PM1 [1]) [h] | concentration up to which PM1 is capable of growth (M. petroleiphilum PM1 [1]) | Ks values for MTBE (n-alkane grown GPo 1) [mM] | tolerated concentration (M. petroleiphilum PM1 [2]) | dimensionless Henry's constant [3]
COC(C)(C)C [MTBE, methyl tert-butyl ether] | 88 | 15 | up to 1000 mg/L | 20 to 40 | up to 5,000 mg/L | 0.023
CCO [ethanol] | – | 6.1 | up to 7.9 g/L | – | – | –

From patent publication US20090075281A1, “MTBE GENES” (REGENTS OF THE UNIVERSITY OF CALIFORNIA, priority 2007, published 2009)
